Read-outs that look alike come from different tables or passages of the source. Positions of bridges follow the written chain, without caps; N, C: chain ends. Non-standard residues stand in square brackets, D forms with d. Residues, ends and D or L forms follow the SMILES beside them. *: point of attachment. Malonyl(2,2-Me2,histaminyl) = CC(C)(C(=O)NCCc1cnc[nH]1)C(=O)*; Ala(1H-tetrazol-5-yl) = N[C@@H](Cc1nnn[nH]1)C(=O)O; αMeL = CC(C)C[C@](C)(N)C(=O)O; Nle = CCCC[C@H](N)C(=O)O; Aib = CC(C)(N)C(=O)O

These results are taken from patent US20240270809A1, “ORAL GLP RECEPTOR AGONISTS” (priority 2020, published 2024).

For data set [1], the target named is T1, mouse GLP2 receptor (Mus musculus, UniProt Q5IXF8).
T1 construct: expressed in transfected cells; host or cells: HEK cells, transient transfection with GeneJuice
T1 sequence (Q5IXF8 1-512): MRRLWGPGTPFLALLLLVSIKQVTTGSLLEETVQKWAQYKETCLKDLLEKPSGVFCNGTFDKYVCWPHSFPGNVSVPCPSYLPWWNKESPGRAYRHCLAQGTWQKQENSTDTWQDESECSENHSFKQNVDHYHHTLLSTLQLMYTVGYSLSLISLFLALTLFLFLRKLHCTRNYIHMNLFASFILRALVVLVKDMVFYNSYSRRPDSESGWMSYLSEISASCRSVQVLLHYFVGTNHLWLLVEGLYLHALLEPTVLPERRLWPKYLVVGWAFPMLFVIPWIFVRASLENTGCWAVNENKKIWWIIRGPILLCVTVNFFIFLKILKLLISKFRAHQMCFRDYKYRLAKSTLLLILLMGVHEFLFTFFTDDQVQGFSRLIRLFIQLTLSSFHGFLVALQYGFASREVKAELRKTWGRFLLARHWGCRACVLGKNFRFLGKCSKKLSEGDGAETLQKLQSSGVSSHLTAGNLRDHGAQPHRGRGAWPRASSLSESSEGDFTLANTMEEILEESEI
The experiment in a line: cAMP accumulation assay, functional agonism of mouse GLP2 receptor. Type of data set: cell-based. An outline of the steps:
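Transiently transfected HEK cells (24 h, frozen, 8000/well) in HBSS with 0.5 mM IBMX exposed to compound concentration series for 45 min at 37 °C. cAMP measured by HTRF after lysis and 1 h at RT; pEC50 from four-parameter concentration-response fit.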
(cAMP levels reflect the balance of adenylyl cyclase and phosphodiesterase activity.)

For data set [2], the target named is T2, mouse GLP1 receptor (Mus musculus, UniProt O35659).
T2 construct: expressed in transfected cells; host or cells: HEK cells, transient transfection with GeneJuice
T2 sequence (O35659 22-463): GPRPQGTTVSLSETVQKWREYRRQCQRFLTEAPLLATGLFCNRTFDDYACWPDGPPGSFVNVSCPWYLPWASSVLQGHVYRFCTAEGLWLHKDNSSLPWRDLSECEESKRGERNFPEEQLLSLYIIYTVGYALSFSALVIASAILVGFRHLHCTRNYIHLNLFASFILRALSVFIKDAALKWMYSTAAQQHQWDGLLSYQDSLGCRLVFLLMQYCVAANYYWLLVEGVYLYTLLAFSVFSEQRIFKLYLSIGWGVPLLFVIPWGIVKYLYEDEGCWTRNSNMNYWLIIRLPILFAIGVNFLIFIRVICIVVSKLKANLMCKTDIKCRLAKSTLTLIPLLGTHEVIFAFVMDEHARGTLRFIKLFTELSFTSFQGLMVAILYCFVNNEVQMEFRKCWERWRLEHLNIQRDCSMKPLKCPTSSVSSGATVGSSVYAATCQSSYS
Kind of data set: cAMP accumulation assay, functional agonism of mouse GLP1 receptor. Type of data set: cell-based.
Procedure: CAMP production upon agonist stimulation of mouse GLP2 or GLP1 receptors was assessed utilizing HiRange cAMP kit (Cisbio). In brief, HEK cells were transiently transfected for 24 hours with cDNA using GeneJuice Transfection reagent (EMD Millipore) and frozen at −80° C. for later use in the assay. […] Cells were prepared in the assay buffer (HBSS (Lonza) supplemented with 0.5 mM IBMX (Tocris)). After 45 min incubation at 37° C., the reaction was stopped by addition of the HTRF detection reagents in the lysis buffer provided in the kit. Following 1-hour incubation at RT, plates were read on Pherastar FS (BMG Labtech, Inc.) using standard HTRF settings. Dotmatics Studies software was used for calculation of pEC50 values by fitting data to a four-parameter concentration response curve.

A short description of data set [3]: Stability of peptides in Fasted-State Simulated Intestinal Fluid (FaSSIF). Type of data set: in vitro ADME. Particulars: FaSSIF with 10 mg/ml pancreatin, 37° C.
For data set [4], the target named is T3, human GLP1 receptor (Homo sapiens, UniProt P43220).
T3 construct: expressed in transfected cells; host or cells: HEK cells, BacMam virus transduction
T3 sequence (P43220 24-463): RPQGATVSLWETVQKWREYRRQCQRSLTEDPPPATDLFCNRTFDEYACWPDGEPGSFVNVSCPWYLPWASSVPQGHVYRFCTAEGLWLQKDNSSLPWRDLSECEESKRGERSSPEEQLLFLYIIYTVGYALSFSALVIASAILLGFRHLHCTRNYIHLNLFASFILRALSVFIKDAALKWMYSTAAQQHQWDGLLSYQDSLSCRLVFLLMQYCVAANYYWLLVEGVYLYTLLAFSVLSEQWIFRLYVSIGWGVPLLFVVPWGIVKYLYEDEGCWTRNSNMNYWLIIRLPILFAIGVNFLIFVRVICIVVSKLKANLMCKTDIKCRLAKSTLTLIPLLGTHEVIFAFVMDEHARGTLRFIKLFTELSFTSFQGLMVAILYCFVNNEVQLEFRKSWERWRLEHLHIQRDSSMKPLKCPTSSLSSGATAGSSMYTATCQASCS
The experiment in a line: cAMP accumulation assay, functional agonism of human GLP1 receptor. Type of data set: cell-based. The note with it: HEK cells infected with human GLP1 receptor BacMam virus, HTRF cAMP; for Emax: HEK293, read-out: Human GLP-1R agonist cAMP Emax; for EC50: read-out: Human GLP-1R agonist cAMP pEC50 (converted). Put shortly:
(§1)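 Frozen HEK cells, previously BacMam-infected 24 h to express either receptor, are stimulated for 45 min at 37° C in IBMX-containing (0.5 mM) HBSS. The reaction is then terminated with HTRF reagents in lysis buffer.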

Data set [5] concerns the target T4, human GLP2 receptor (Homo sapiens, UniProt O95838).
T4 construct: expressed in transfected cells; host or cells: HEK cells, BacMam virus transduction
T4 sequence (O95838 1-553): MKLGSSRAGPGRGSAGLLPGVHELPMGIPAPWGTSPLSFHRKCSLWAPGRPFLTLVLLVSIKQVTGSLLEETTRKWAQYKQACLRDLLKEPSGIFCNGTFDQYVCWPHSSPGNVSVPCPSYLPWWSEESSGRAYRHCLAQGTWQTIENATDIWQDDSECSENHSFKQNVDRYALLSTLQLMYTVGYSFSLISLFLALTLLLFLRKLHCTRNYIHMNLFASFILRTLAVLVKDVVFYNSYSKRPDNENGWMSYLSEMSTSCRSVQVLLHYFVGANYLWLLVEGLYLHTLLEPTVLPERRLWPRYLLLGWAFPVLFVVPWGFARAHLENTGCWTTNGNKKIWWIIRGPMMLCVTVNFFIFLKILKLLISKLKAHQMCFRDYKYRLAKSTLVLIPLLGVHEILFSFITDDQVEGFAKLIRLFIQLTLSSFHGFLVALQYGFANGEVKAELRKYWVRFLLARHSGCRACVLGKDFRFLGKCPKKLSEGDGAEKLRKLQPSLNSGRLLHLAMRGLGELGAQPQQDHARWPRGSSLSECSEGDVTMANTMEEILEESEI
The experiment in a line: cAMP accumulation assay, functional agonism of human GLP2 receptor. Type of data set: cell-based. Particulars: HEK cells infected with human GLP2 receptor BacMam virus, HTRF cAMP; for Emax: HEK293, read-out: Human GLP-2R agonist cAMP Emax; for EC50: read-out: Human GLP-2R agonist cAMP pEC50 (converted). An outline of the steps:
as §1

The mark [6] stands for this setting: HEK293, HEK cells transiently transfected with mouse GLP2 receptor, HTRF cAMP, read-out: Mouse GLP-2R agonist cAMP Emax.
Where [7] appears, read: HEK cells transiently transfected with mouse GLP2 receptor, HTRF cAMP, read-out: Mouse GLP-2R agonist cAMP pEC50 (converted).
Where [8] appears, read: HEK293, HEK cells transiently transfected with mouse GLP1 receptor, HTRF cAMP, read-out: Mouse GLP-1R agonist cAMP Emax.
[9] abbreviates: HEK cells transiently transfected with mouse GLP1 receptor, HTRF cAMP, read-out: Mouse GLP-1R agonist cAMP pEC50 (converted).

The Emax is the maximal effect, on the per cent scale that the assay sets. The term amount remaining denotes what is left of the initial amount, in per cent. Take `CCCC[C@@H]1NC(=O)[C@H](CCC(=O)O)NC(=O)[C@@H](NC(=O)[C@H](CO)NC(=O)[C@H](Cc2ccccc2)NC(=O)[C@H](CO)NC(=O)CNC(=O)[C@H](Cc2nn[nH]n2)NC(=O)C(C)(C)C(=O)NCCc2c[nH]cn2)CCCCNC(=O)C[C@@H](C(=O)N[C@H](C(=O)N[C@@H](CC(C)C)C(=O)N[C@@H](CC(=O)O)C(=O)N[C@H]2CC(=O)NCCCC[C@@H](C(=O)N[C@@H](CC(=O)O)C(=O)N[C@@H](Cc3ccccc3)C(=O)N[C@H](C(=O)N[C@@H](CC(N)=O)C(=O)N[C@@H](Cc3c[nH]c4ccccc34)C(=O)N[C@@H](CC(C)C)C(=O)N[C@H](C(=O)N[C@@H](CCC(N)=O)C(=O)N[C@H](C(=O)N[C@H]3CCC(=O)NCCCC[C@@H](C(N)=O)NC(=O)[C@H]([C@@H](C)O)NC(=O)[C@H]([C@@H](C)CC)NC3=O)[C@@H](C)O)[C@@H](C)CC)[C@@H](C)CC)NC(=O)[C@H](C)NC(=O)[C@H](C)NC(=O)[C@H](CCCCN)NC2=O)[C@@H](C)CC)NC(=O)[C@@H](Cc2ccccc2)NC1=O` [Example 1] ({Malonyl(2,2-Me2,histaminyl)}-[Ala(1H-tetrazol-5-yl)]GSFSKE[Nle][dF]DILDDKAAKDFINWLIQTEITK-NH2; lactam 6-10, 14-18, 28-31): the Emax in data set [1] (setting [6]) amounted to 97.7%; in data set [2] (setting [8]) it was 91.5%; in data set [4], 90.1%; in data set [5], 103%. Besides, the EC50 is 10 nM in data set [1] (setting [7]), 0.126 nM in data set [2] (setting [9]), 0.794 nM in data set [4] and 0.398 nM in data set [5]. The fraction remaining at 0.5 h in data set [3] (t=30 mins, pH 6.5, 10 mg/ml pancreatin) was 5%.

Consider `CCCC[C@H](NC(=O)[C@H](CCC(=O)O)NC(=O)[C@H](CC(=O)O)NC(=O)[C@H](CO)NC(=O)[C@H](Cc1ccccc1)NC(=O)[C@H](CO)NC(=O)CNC(=O)[C@H](CC(=O)O)NC(=O)C(C)(C)NC(=O)[C@@H](N)Cc1c[nH]cn1)C(=O)N[C@H](Cc1ccccc1)C(=O)N[C@H]1CCC(=O)NCCCC[C@@H](C(=O)N[C@@H](CCCCN)C(=O)N[C@@H](C)C(=O)N[C@@H](C)C(=O)N[C@@H](CCCCN)C(=O)N[C@@H](CC(=O)O)C(=O)N[C@@H](Cc2ccccc2)C(=O)N[C@H](C(=O)N[C@@H](CC(N)=O)C(=O)N[C@@H](Cc2c[nH]c3ccccc23)C(=O)N[C@@H](CC(C)C)C(=O)N[C@H](C(=O)N[C@@H](CCC(N)=O)C(=O)N[C@H](C(=O)N[C@@H](CCCCN)C(=O)N[C@H](C(=O)N[C@H](C(=O)N[C@@H](CC(=O)O)C(N)=O)[C@@H](C)O)[C@@H](C)CC)[C@@H](C)O)[C@@H](C)CC)[C@@H](C)CC)NC(=O)[C@H](CC(=O)O)NC(=O)[C@H](CC(C)C)NC(=O)[C@H]([C@@H](C)CC)NC1=O` [Example 87] (H-H[Aib]DGSFSDE[Nle][dF]EILDKKAAKDFINWLIQTKITD-NH2; lactam 12-16 (inferred); C-terminus assumed), for which the Emax in data set [1] (setting [6]) was determined as 99.2%; in data set [2] (setting [8]) it was 91.4%; in data set [4], 98.7%; in data set [5], 102%. Also, the EC50 in data set [1] (setting [7]) was 0.00631 nM; in data set [2] (setting [9]) it was 0.631 nM; in data set [4], 2.51 nM; in data set [5], 0.00251 nM. Besides, the share remaining at 0.25 h in data set [3] (FaSSIF pH 6.5 with 10 mg/ml pancreatin, t = 15 mins) is 1.7%.

Consider `CCCC[C@H](NC(=O)[C@H](CCC(=O)O)NC(=O)[C@H](CC(=O)O)NC(=O)[C@H](CO)NC(=O)[C@H](Cc1ccccc1)NC(=O)[C@H](CO)NC(=O)[C@@H](C)NC(=O)[C@H](Cc1nn[nH]n1)NC(=O)C(C)(C)C(=O)NCCc1c[nH]cn1)C(=O)N[C@H](Cc1ccccc1)C(=O)N[C@H](C(=O)N[C@@](C)(CC(C)C)C(=O)N[C@@H](CC(C)C)C(=O)N[C@@H](CC(=O)O)C(=O)N[C@H]1CCC(=O)NCCCC[C@@H](C(=O)N[C@@H](CC(=O)O)C(=O)N[C@@H](Cc2ccccc2)C(=O)N[C@H](C(=O)N[C@H]2CCC(=O)NCCCC[C@@H](C(=O)N[C@H](C(=O)N[C@@H](CCCCN)C(=O)N[C@H](C(=O)N[C@H](C(=O)N[C@@H](Cc3ccccc3)C(N)=O)[C@@H](C)O)[C@@H](C)CC)[C@@H](C)O)NC(=O)[C@H]([C@@H](C)CC)NC(=O)[C@H](CC(C)C)NC(=O)[C@H](Cc3c[nH]c4ccccc34)NC2=O)[C@@H](C)CC)NC(=O)[C@H](C)NC(=O)[C@H](C)NC(=O)[C@H](CCCCN)NC1=O)[C@@H](C)O` [Example 116] ({Malonyl(2,2-Me2,histaminyl)}-[Ala(1H-tetrazol-5-yl)][dA]SFSDE[Nle][dF]T[αMeL]LDEKAAKDFIEWLIKTKITF-NH2; lactam 14-18, 22-26 (inferred); C-terminus assumed), for which the Emax in data set [1] (setting [6]) is 99.9%; in data set [2] (setting [8]), 95.5%; in data set [4], 94.4%; in data set [5], 103%. The EC50 in data set [1] (setting [7]) was 0.316 nM; in data set [2] (setting [9]), 0.2 nM; in data set [4], 0.316 nM; in data set [5], 0.00794 nM.

Take `CCCC[C@H](NC(=O)[C@H](CCC(=O)O)NC(=O)[C@H](CC(=O)O)NC(=O)[C@H](CO)NC(=O)[C@H](Cc1ccccc1)NC(=O)[C@H](CO)NC(=O)[C@@H](C)NC(=O)[C@H](Cc1nn[nH]n1)NC(=O)C(C)(C)C(=O)NCCc1c[nH]cn1)C(=O)N[C@H](Cc1ccccc1)C(=O)N[C@H](C(=O)N[C@@](C)(CC(C)C)C(=O)N[C@@H](CC(C)C)C(=O)N[C@@H](CC(=O)O)C(=O)N[C@H]1CCC(=O)NCCCC[C@@H](C(=O)N[C@@H](CC(=O)O)C(=O)N[C@@H](Cc2ccccc2)C(=O)N[C@H](C(=O)N[C@H]2CCC(=O)NCCCC[C@@H](C(=O)N[C@H](C(=O)N[C@@H](CCCCN)C(N)=O)[C@@H](C)O)NC(=O)[C@H]([C@@H](C)CC)NC(=O)[C@H](CC(C)C)NC(=O)[C@H](Cc3c[nH]c4ccccc34)NC2=O)[C@@H](C)CC)NC(=O)[C@H](C)NC(=O)[C@H](C)NC(=O)[C@H](CCCCN)NC1=O)[C@@H](C)O` [Example 117] ({Malonyl(2,2-Me2,histaminyl)}-[Ala(1H-tetrazol-5-yl)][dA]SFSDE[Nle][dF]T[αMeL]LDEKAAKDFIEWLIKTK-NH2; lactam 14-18, 22-26; C-terminus assumed): the EC50 in data set [1] is 0.158 nM; in data set [2], 0.0794 nM; in data set [4] it was 0.126 nM; in data set [5], 0.00316 nM. The Emax was determined as 99.3% in data set [1] (HEK293, read-out: Mouse GLP-2R agonist cAMP Emax); 96.9% in data set [2] (HEK293, read-out: Mouse GLP-1R agonist cAMP Emax); 94.7% in data set [4]; 103% in data set [5].
